Test results: patent US20220315567A1 (priority 2016, published 2022)
Structures can show the parent of a compound that is named as a salt. Where two headings read alike, the source gives them in different places.

Legend:
human OPRM1 (μ, MOR) [1] = target: T1, human OPRM1 (μ, MOR) (Homo sapiens, UniProt P35372); experiment: cell-based; conditions: for Emax: OPRM1, read-out: cAMP Emax; for EC50: PathHunter human OPRM1 Arrestin CHO-K1 cell line, read-out: cAMP EC50
T1 construct: host or cells: CHO-K1
T1 sequence (P35372 whole entry): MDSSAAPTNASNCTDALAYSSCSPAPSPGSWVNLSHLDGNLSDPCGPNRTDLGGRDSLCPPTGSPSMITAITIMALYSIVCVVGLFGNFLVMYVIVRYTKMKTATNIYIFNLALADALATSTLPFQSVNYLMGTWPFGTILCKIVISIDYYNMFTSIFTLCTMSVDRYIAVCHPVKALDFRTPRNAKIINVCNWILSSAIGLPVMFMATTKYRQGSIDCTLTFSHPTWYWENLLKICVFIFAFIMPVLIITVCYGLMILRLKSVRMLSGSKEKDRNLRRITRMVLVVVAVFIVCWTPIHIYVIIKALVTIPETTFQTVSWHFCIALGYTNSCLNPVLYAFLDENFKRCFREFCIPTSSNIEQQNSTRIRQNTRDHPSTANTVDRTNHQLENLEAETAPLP
Method: G-protein signaling was measured via second messenger cAMP modulation. Detection of cAMP modulation was accomplished in the PathHunter human OPRM1 (μ, MOR) Arrestin CHO-K1 cell line using the Dynamic2 cAMP Kit from Cisbio.

human OPRM1 (μ, MOR) [2] = target: T1, human OPRM1 (μ, MOR); format: cell-based; conditions: for ΔRA of compound: relative activity from EC50 and Emax of β-arrestin vs cAMP, lower RA = more G-protein biased
Method: In certain embodiments, the ability of a compound to activate G-protein or β-arrestin is not an on/off switch for a given pathway, but rather a continuous function. To capture this, each compound is measured for activity in cell assays that are linked to β-arrestin recruitment and G-protein signaling. By comparing the activity between these two measures (accounting for both EC50 and maximal response reached, Emax) a relative activity (RA) value is determined.
In the case of MOR it is desirable to have high activation of the G-protein pathway while reducing activation of β-arrestin. In the case of the formula above, this means a lower RA.

human OPRM1 (μ, MOR) [3] = target: T1, human OPRM1 (μ, MOR); experiment: cell-based; conditions: for Emax: OPRM1, read-out: β-Arrestin Emax; for EC50: PathHunter human OPRM1 Arrestin CHO-K1 cell line, read-out: β-Arrestin EC50
Method: The Discoverx PathHunter® β-Arrestin assay is used to measure β-arrestin-2 activity. The technology is based on Enzyme Fragment Complementation (EFC) with β-galactosidase (β-Gal) as the reporter. […] EA is fused to Q-arrestin-2, and ED is fused to the C-terminus of the GPCR of interest. When a ligand binds and the GPCR is activated, Q-arrestin-2 is recruited to the receptor resulting in an ED/EA complementation, restoring f-Gal activity, which is measured using chemiluminescence. For this assay, the PathHunter human OPRM1 (μ, MOR) Arrestin CHO-K1 cell line was used.

SMILES | melting point | EC50 (human OPRM1 (μ, MOR) [1]) | Bias Factor (ΔRA of compound relative to ΔRA of DAMGO) × 10 (human OPRM1 (μ, MOR) [2]) | ΔRA of compound (human OPRM1 (μ, MOR) [2]) | EC50 (human OPRM1 (μ, MOR) [3]) | other results
CN(C)C(CNC(=O)N1Cc2ccc(O)cc2C1)c1ccsc1 (stereo not shown) (as salt: hydrobromid) [Compound 22, N-(2-(Dimethylamino)-2-(thiophen-3-yl)ethyl)-5-hydroxyisoindoline-2-carboxamide hydrobromide] | 134 °C (dec.) | – | – | – | – | –
CN(C)C(CNC(=O)N1Cc2ccc(O)cc2C1)c1ccc(O)cc1 (stereo not shown) (as salt: hydrobromid) [Compound 24, N-(2-(dimethylamino)-2-(4-hydroxyphenyl)ethyl)-5-hydroxyisoindoline-2-carboxamide hydrobromide] | 185 °C (dec.) | – | – | – | – | –
CN(C)C(CNC(=O)N1Cc2ccccc2C1)c1ccsc1 (stereo not shown) (as salt: hydrochloride) [Compound 1a, N-(2-(Dimethylamino)-2-(thiophen-3-yl)ethyl)isoindoline-2-carboxamide hydrochloride] | 145 to 150 °C (dec.) | – | – | – | – | –
CN(C)C(CNC(=O)N1Cc2cccc(F)c2C1)c1ccsc1 (stereo not shown) (as salt: hydrochloride) [Compound 3a, N-(2-(Dimethylamino)-2-(thiophen-3-yl)ethyl)-4-fluoroisoindoline-2-carboxamide hydrochloride] | 150 to 155 °C (dec.) | – | – | – | – | –
CN(C)C(CNC(=O)N1Cc2ccc(Cl)cc2C1)c1ccsc1 (stereo not shown) (as salt: hydrochloride) [Compound 4a, 5-Chloro-N-(2-(dimethylamino)-2-(thiophen-3-yl)ethyl)isoindoline-2-carboxamide hydrochloride] | 210 to 215 °C (dec.) | – | – | – | – | –
COc1ccc2c(c1)CN(C(=O)NCC(c1ccsc1)N(C)C)C2 (stereo not shown) (as salt: hydrochloride) [Compound 5a, N-(2-(Dimethylamino)-2-(thiophen-3-yl)ethyl)-5-methoxyisoindoline-2-carboxamide hydrochloride] | 210 to 215 °C (dec.) | – | – | – | – | –
CN(C)C(CNC(=O)N1Cc2cc(F)c(F)cc2C1)c1ccsc1 (stereo not shown) (as salt: hydrochloride) [Compound 6a, N-(2-(dimethylamino)-2-(thiophen-3-yl)ethyl)-5,6-difluoroisoindoline-2-carboxamide hydrochloride] | 210 to 212 °C | – | – | – | – | –
CN(C)C(CNC(=O)NC1CCc2ccccc2C1)c1ccsc1 (stereo not shown) (as salt: hydrochloride) [Compound 10a, 1-(2-(Dimethylamino)-2-(thiophen-3-yl)ethyl)-3-(1,2,3,4-tetrahydronaphthalen-2-yl)urea hydrochloride] | 151 to 153 °C | – | – | – | – | –
CN(C)C(CNC(=O)NC1CCCc2ccccc21)c1ccsc1 (stereo not shown) (as salt: hydrochloride) [Compound 11a, 1-(2-(Dimethylamino)-2-(thiophen-3-yl)ethyl)-3-(1,2,3,4-tetrahydronaphthalen-1-yl)urea hydrochloride] | 179 to 181 °C | – | – | – | – | –
Cc1ccc2c(c1)CN(C(=O)NCC(c1ccsc1)N(C)C)C2 (stereo not shown) (as salt: hydrochloride) [Compound 12a, N-(2-(Dimethylamino)-2-(thiophen-3-yl)ethyl)-5-methylisoindoline-2-carboxamide hydrochloride] | 200 to 202 °C (dec.) | – | – | – | – | –
CN(C)C(CNC(=O)N(C)C1CCCc2ccccc21)c1ccsc1 (stereo not shown) (as salt: hydrochloride) [Compound 13a, 3-(2-(Dimethylamino)-2-(thiophen-3-yl)ethyl)-1-methyl-1-(1,2,3,4-tetrahydronaphthalen-1-yl)urea hydrochloride] | 188 to 190 °C | – | – | – | – | –
CN(C)C(CNC(=O)N1Cc2ccccc2C1)c1ccc(F)cc1Cl (stereo not shown) (as salt: hydrochloride) [Compound 14a, N-(2-(2-Chloro-4-fluorophenyl)-2-(dimethylamino)ethyl)isoindoline-2-carboxamide hydrochloride] | 147 to 149 °C | – | – | – | – | –
COc1ccc(C(CNC(=O)N2Cc3ccccc3C2)N(C)C)cc1 (stereo not shown) (as salt: hydrochloride) [Compound 15a, N-(2-(Dimethylamino)-2-(4-methoxyphenyl)ethyl)isoindoline-2-carboxamide hydrochloride] | 149 to 151 °C (dec.) | – | – | – | – | –
COc1ccc(C(CNC(=O)N2Cc3ccc(F)cc3C2)N(C)C)cc1 (stereo not shown) (as salt: hydrochloride) [Compound 16a, N-(2-(Dimethylamino)-2-(4-methoxyphenyl)ethyl)-5-fluoroisoindoline-2-carboxamide hydrochloride] | 145 to 149 °C (dec.) | – | – | – | – | –
CN(C)C(CNC(=O)N1Cc2ccc(F)cc2C1)c1ccc(F)cc1Cl (stereo not shown) (as salt: hydrochloride) [Compound 17a, N-(2-(2-Chloro-4-fluorophenyl)-2-(dimethylamino)ethyl)-5-fluoroisoindoline-2-carboxamide hydrochloride] | 173 to 174 °C (dec.) | – | – | – | – | –
CN(C)C(CNC(=O)N1Cc2ccccc2C1)c1ccccc1 (stereo not shown) (as salt: hydrochloride) [Compound 18a, N-(2-(Dimethylamino)-2-phenylethyl)isoindoline-2-carboxamide hydrochloride] | 107 to 108 °C | – | – | – | – | –
CN(C)[C@H](CCNC(=O)N1CC[C@H](c2ccccc2)C1)c1ccsc1 [Compound 75] | – | 2090 nM | −3.97 | −1.88 | 17000 nM | Emax (human OPRM1 (μ, MOR) [1]): 114%; Emax (human OPRM1 (μ, MOR) [3]): 12.2%
CN(C)[C@H](CCNC(=O)N1CC[C@@H](c2ccccc2)C1)c1ccsc1 [Compound 76] | – | 1760 nM | <−14.83 | <−2.96 | > 100000 nM | Emax (human OPRM1 (μ, MOR) [1]): 33%; Emax (human OPRM1 (μ, MOR) [3]): < 1%
CN(C)[C@@H](CCNC(=O)N1CC[C@@H](c2ccccc2)C1)c1ccsc1 [Compound 77] | – | 1100 nM | <−14.83 | <−2.96 | > 100000 nM | Emax (human OPRM1 (μ, MOR) [1]): 33.2%; Emax (human OPRM1 (μ, MOR) [3]): < 1%
CNC(CNC(=O)N1Cc2ccccc2C1)c1ccsc1 (stereo not shown) [Compound 78] | – | 362 nM | <−14.83 | <−2.96 | > 100000 nM | cAMP Emax (human OPRM1 (μ, MOR) [1]): 104.0%; β-Arrestin Emax (human OPRM1 (μ, MOR) [3]): 12.8%
CNC(CNC(=O)N1Cc2ccccc2C1)c1ccsc1 (stereo not shown) [Compound 79] | – | 87 nM | <−14.83 | <−2.96 | > 100000 nM | cAMP Emax (human OPRM1 (μ, MOR) [1]): 64.2%; β-Arrestin Emax (human OPRM1 (μ, MOR) [3]): 1.7%
CNC(CNC(=O)N1Cc2cccc(F)c2C1)c1ccsc1 (stereo not shown) [Compound 80] | – | 41 nM | −6.64 | −2.14 | 1400 nM | Emax (human OPRM1 (μ, MOR) [1]): 103%; β-Arrestin Emax (human OPRM1 (μ, MOR) [3]): 25.2%
CNC(CNC(=O)N1Cc2cccc(F)c2C1)c1ccsc1 (stereo not shown) [Compound 81] | – | 14 nM | <−14.83 | <−2.96 | > 100000 nM | cAMP Emax (human OPRM1 (μ, MOR) [1]): 91.6%; β-Arrestin Emax (human OPRM1 (μ, MOR) [3]): 8.2%
CNC(CNC(=O)N1Cc2ccc(F)cc2C1)c1ccc(OC)cc1 (stereo not shown) [Compound 82] | – | 457 nM | <−14.83 | <−2.96 | > 100000 nM | Emax (human OPRM1 (μ, MOR) [1]): 83.2%; β-Arrestin Emax (human OPRM1 (μ, MOR) [3]): 2.7%
CNC(CNC(=O)N1Cc2ccc(F)cc2C1)c1ccc(OC)cc1 (stereo not shown) [Compound 83] | – | 57 nM | <−14.83 | <−2.96 | > 100000 nM | cAMP Emax (human OPRM1 (μ, MOR) [1]): 100.1%; β-Arrestin Emax (human OPRM1 (μ, MOR) [3]): 13.4%
